These results are taken from patent US8969386B2, “Modulators of CFTR” (Vertex Pharmaceuticals Incorporated, priority 2007, dated 2015).

For this assay, the target named is T1, ΔF508-CFTR (Homo sapiens, UniProt P13569, DEL508-508).
T1 construct: expressed in transfected cells
Put plainly: ΔF508-CFTR correction, membrane potential optical (FRET/VIPR) assay. To be noted: NIH3T3 mouse fibroblasts stably expressing ΔF508-CFTR; for Emax: read-out: % Efficacy. The assay is classed as cell-based.

T1 sequence (P13569 with tags, fused parts or gaps DEL508-508): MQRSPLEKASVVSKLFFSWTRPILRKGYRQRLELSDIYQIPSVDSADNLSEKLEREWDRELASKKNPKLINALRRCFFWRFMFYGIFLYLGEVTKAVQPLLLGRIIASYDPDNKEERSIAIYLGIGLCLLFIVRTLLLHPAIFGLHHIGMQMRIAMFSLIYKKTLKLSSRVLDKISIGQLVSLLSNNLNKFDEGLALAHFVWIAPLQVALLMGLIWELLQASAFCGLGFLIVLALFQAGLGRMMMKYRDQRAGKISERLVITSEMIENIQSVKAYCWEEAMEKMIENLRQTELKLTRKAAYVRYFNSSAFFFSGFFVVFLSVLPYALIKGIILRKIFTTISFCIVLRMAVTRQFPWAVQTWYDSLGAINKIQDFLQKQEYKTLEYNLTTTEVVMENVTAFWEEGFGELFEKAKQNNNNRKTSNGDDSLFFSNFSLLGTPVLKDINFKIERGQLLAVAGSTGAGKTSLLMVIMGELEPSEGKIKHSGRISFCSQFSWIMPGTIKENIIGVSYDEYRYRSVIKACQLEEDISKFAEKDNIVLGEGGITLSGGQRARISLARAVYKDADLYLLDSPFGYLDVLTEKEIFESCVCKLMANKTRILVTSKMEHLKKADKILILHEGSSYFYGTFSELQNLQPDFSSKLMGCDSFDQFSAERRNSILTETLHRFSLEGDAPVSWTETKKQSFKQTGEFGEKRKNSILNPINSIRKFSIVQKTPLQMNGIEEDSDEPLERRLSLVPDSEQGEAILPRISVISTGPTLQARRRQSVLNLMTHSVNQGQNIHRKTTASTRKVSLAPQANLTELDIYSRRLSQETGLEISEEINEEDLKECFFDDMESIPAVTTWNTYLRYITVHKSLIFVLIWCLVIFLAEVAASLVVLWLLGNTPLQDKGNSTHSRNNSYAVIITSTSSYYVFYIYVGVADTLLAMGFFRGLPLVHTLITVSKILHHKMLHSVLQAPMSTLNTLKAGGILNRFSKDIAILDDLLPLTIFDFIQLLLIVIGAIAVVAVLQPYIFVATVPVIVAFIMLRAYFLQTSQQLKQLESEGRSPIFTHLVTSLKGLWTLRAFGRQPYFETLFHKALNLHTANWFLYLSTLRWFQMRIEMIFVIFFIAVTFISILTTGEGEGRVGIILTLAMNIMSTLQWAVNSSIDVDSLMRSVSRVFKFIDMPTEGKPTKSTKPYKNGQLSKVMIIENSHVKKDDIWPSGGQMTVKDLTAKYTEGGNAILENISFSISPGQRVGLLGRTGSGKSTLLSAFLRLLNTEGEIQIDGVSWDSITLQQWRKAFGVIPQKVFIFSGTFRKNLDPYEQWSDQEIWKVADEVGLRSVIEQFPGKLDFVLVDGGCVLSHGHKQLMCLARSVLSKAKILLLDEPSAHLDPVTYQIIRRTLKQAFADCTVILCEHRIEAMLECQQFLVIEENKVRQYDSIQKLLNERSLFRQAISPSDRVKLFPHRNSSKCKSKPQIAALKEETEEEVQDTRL

Consider `Cc1cc(NC(=O)C2(c3ccc4c(c3)OC(F)(F)O4)CC2)nc(-c2ccc(=O)[nH]c2C)c1C` [Compound 108], for which the EC50 (in general, the concentration giving half of the maximal effect) was under 2000 nM and the Emax was over 100%.

Regarding `Cc1cc(NC(=O)C2(c3ccc4c(c3)CCO4)CC2)nc(-c2cc[nH]c(=O)c2)c1C` [Compound 109], the concentration for a half-maximal effect (EC50) was under 2000 nM and the Emax is 50 to 100%.

Turning to `COC(=O)Cn1cc(-c2nc(NC(=O)C3(c4ccc5c(c4)OC(F)(F)O5)CC3)ccc2C)cc(C#N)c1=O` [Compound 110], the EC50 is under 2000 nM and the Emax lay in the range of 50 to 100%.

Regarding `Cc1cc(NC(=O)C2(c3ccc4c(c3)OC(F)(F)O4)CC2)nc(-c2c[nH]c(=O)c(C)c2)c1C` [Compound 111], the EC50 is under 2000 nM and the Emax is over 100%.

Consider `Cc1cc(NC(=O)C2(c3ccc4c(c3)CCO4)CC2)nc(-c2ccc(=O)[nH]c2)c1C` [Compound 112], for which the EC50 is under 2000 nM and the Emax is 50 to 100%.

Consider `Cc1cc(NC(=O)C2(c3ccc4c(c3)OC(F)(F)O4)CC2)nc(-c2c[nH]c(=O)cc2C)c1` [Compound 113], for which the EC50 is under 2000 nM and the Emax is over 100%.

On to `Cc1cc(NC(=O)C2(c3ccc4c(c3)CCO4)CC2)nc(-c2ccc[nH]c2=O)c1C` [Compound 114], for which the EC50 was under 2000 nM and the Emax lay in the range of 50 to 100%.

`Cc1ccc(NC(=O)C2(c3ccc4c(c3)CCC4)CC2)nc1-c1ccc(=O)[nH]c1` [Compound 115]: the EC50 was under 2000 nM and the Emax was in the range of 50 to 100%.

As to `Cc1cc(-c2nc(NC(=O)C3(c4ccc5c(c4)OC(F)(F)O5)CC3)ccc2C)c(=O)n(CCO)c1` [Compound 116], the EC50 was under 2000 nM and the Emax is over 100%.

Consider `Cc1cc(NC(=O)C2(c3ccc4c(c3)OC(F)(F)O4)CC2)nc(-c2ccc(=O)[nH]c2C)c1` [Compound 117], for which the EC50 was under 2000 nM and the Emax was over 100%.
